This note sets out measurements from PubChem BioAssay AID1205 (EPA DSSTox, 2008).

Calls of active or inactive are those of the source.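 How the source made its calls: active means tumour findings in long-term animal cancer tests in more than one sex, species or organ; inactive means no tumour finding and more than one negative test.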

The nature of the data set: DSSTox (CPDBAS) Carcinogenic Potency Database Summary MultiCellCall Results. The following applies: animal carcinogenicity bioassays, multi-cell call summary. The text has this: The Carcinogenic Potency Database (CPDB) is a unique and widely used international resource of the results of over 6500 chronic, long-term animal cancer tests on over 1500 chemical substances. The CPDB provides easy access to the bioassay literature, with qualitative and quantitative analyses of both positive and negative experiments that have been published over the past 50 years in the general literature and by the National Cancer Institute/National Toxicology Program. The CPDB standardizes the diverse literature of cancer bioassays that vary widely in protocol, histopathological examination and nomenclature, and in the published author's choices of what information to provide in their papers. Results are reported in the CPDB for tests in rats, mice, hamsters, dogs, and nonhuman primates, and are based on the most positive result among all experiments for each sex-species. The DSSTox CPDBAS (all species) file incorporates data from the CPDB Summary Tables for the full list of over 1500 chemical substances tested in at least one species. A summary MultiCellCall, based on experimental bioassay results of one or more species, is provided in the DSSTox CPDBAS file (see Source URL) for more than 1150 chemical substances.
Associated TD50 values and tumor site details for the relevant species/sex experiment supporting the overall CPDBAS MultiSiteCall are provided in the full DSSTox CPDBAS file (see Comment) and the corresponding CPDBAS Species Bioassay in PubChem. ActivityScore is computed as follows: multispecies=50, multisex=30, multisite=20, with combination scores computed as sums of these values, e.g. multispecies+multisite=70.
Turning to `CC(C)CON=O`, the outcome was “active; multisex active; multispecies active”. Then `C=CCOC(=O)c1ccccc1C(=O)OCC=C`, with “inactive; multisex inactive; multispecies inactive”; and `COc1ccc(N)cc1`, with “inactive; multisex inactive; multispecies inactive”; and `NNc1ccc(C(=O)O)cc1`, with “active; multisex active”. In the case of `N[C@@H](CS)C(=O)O`, the outcome was “inactive; multisex inactive”. Consider `Cc1cc(O)cc(C)c1N(C)C`, for which the outcome was “inactive; multisex inactive”. To `CN(C)CCN(Cc1cccs1)c1ccccc1` belongs “inactive; multisex inactive”.

As to `CNC(=O)O/N=C(\SC)C(=O)N(C)C`, the outcome was “inactive; multisex inactive; multispecies inactive”. Consider `O=C1OC(O)C(C(Cl)Cl)=C1Cl` (stereo not drawn), for which the outcome was “active; multisite active; multisex active”.

In the case of `CCNN`, the outcome was “active; multisite active; multisex active”. For the compound `Nc1ccc(N(CCO)CCO)cc1`, the outcome was “inactive; multisex inactive”. As for `C=C1C(C)(C)[C@@]2(Cl)C(Cl)[C@]1(Cl)C(Cl)(Cl)C2(Cl)Cl` (stereo partly drawn), the outcome is “active; multisite active”. To `O=C/C=C/c1ccccc1` belongs “inactive; multisex inactive; multispecies inactive”. Then `c1ccc2c(c1)[nH]c1ccccc12`, with “active; multisite active; multisex active”; and `CC(C)(Oc1ccc(C2CC2(Cl)Cl)cc1)C(=O)O` (stereo not drawn), with “active; multisite active; multisex active; multispecies active”.

On to `C#C[C@]1(OC(C)=O)CC[C@H]2[C@@H]3CCC4=C[C@@H](OC(C)=O)CC[C@@H]4[C@H]3CC[C@@]21C`, for which the outcome was “inactive; multispecies inactive”. For `Cc1ncc([N+](=O)[O-])n1CCO`, the outcome is “active; multisite active; multisex active; multispecies active”. Then `O=[N+]([O-])c1ccc(Oc2ccc(Cl)cc2Cl)cc1`, with “active; multisite active; multisex active; multispecies active”; and `C=CCN(N)CC=C`, with “active; multisite active; multisex active”. Consider `Cc1ccc([N+](=O)[O-])cc1N`, for which the outcome was “active; multisite active; multisex active”. Take `CC(=O)OCc1ccccc1`: the outcome is “active; multisite active; multisex active”.

Consider `O=S1(=O)CC=CC1`, for which the outcome is “inactive; multisex inactive; multispecies inactive”. With `CC(C)(c1ccc(O)cc1)c1ccc(O)cc1`, the outcome was “inactive; multisex inactive; multispecies inactive”. As for `CC(=O)N(C(C)=O)c1cccc2c1Cc1ccccc1-2`, the outcome was “active; multisite active”. Then `C=C/C=N/O`, with “inactive; multisex inactive”; and `CNC(=O)O/N=C/C(C)(C)SC`, with “inactive; multisex inactive; multispecies inactive”; and `C[C@]12CC[C@H](O)CC1=CC[C@@H]1[C@@H]2CC[C@]2(C)C(=O)CC[C@@H]12`, with “active; multisex active”.

With `O=NN1CCCCC1`, the outcome is “active; multisite active; multisex active; multispecies active”. Regarding `CCN(N=O)C(N)=O`, the outcome is “active; multisite active; multisex active”. `O=C1OC(=O)c2ccccc21`: the outcome is “inactive; multisex inactive; multispecies inactive”. With `c1ccc2c(c1)Oc1ccccc1O2`, the outcome is “inactive; multisex inactive; multispecies inactive”. With `CCCCN(N)CCCC`, the outcome was “active; multisite active; multisex active”. As for `O=[N+]([O-])c1ccc2c(c1)Cc1ccccc1-2`, the outcome is “active; multisite active”. In the case of `CCCCCCCC/C=C\CCCCCCCC(=O)O`, the outcome was “inactive; multisex inactive”. Take `CC(C)COC(=O)c1ccc(O)cc1`: the outcome was “inactive; multisex inactive”.

For `C=CC(=O)NCO`, the outcome was “active; multisite active; multisex active”.

Consider `O[C@@H]([C@H](O)[C@@H](O)CBr)[C@@H](O)CBr`, for which the outcome is “active; multisite active; multisex active; multispecies active”. Consider `CC(=O)Nc1nc(-c2ccc([N+](=O)[O-])o2)cs1`, for which the outcome was “active; multisite active; multisex active; multispecies active”. As for `CCNC(=S)NCC`, the outcome is “active; multisex active”. With `O=C1O[C@H]([C@H](O)CO)C(O)=C1O`, the outcome is “inactive; multisex inactive; multispecies inactive”. Take `BrCCBr`: the outcome was “active; multisite active; multisex active; multispecies active”. `CCCCC(CC)COC(=O)c1ccccc1C(=O)OCC(CC)CCCC` (stereo not drawn): the outcome was “active; multisex active; multispecies active”.

As to `C1CCCNCCC1`, the outcome is “inactive; multisex inactive”. To `C=CCOC(=O)CC(C)C` belongs “active; multisex active; multispecies active”; to `c1ccc2occc2c1`, “active; multisite active; multisex active; multispecies active”; to `COC(=O)C(C)(C)Oc1ccc(-c2ccc(Cl)cc2)cc1`, “active; multisite active; multisex active; multispecies active”. On to `Cc1ccc(OP(=O)(Oc2ccc(C)cc2)Oc2ccc(C)cc2)cc1`, for which the outcome is “inactive; multisex inactive; multispecies inactive”. Then `c1ccc2c(c1)Nc1ccccc1S2`, with “inactive; multisex inactive”; and `Cc1ccc(N)cc1N`, with “active; multisite active; multisex active; multispecies active”. On to `Cc1cccc(Nc2cc(Cl)nc(SCC(=O)O)n2)c1C`, for which the outcome was “active; multispecies active”. As to `CN(N)C=O`, the outcome was “active; multisite active; multisex active; multispecies active”. `Cc1cccc(Nc2cc(Cl)nc(SCC(=O)NCCO)n2)c1C`: the outcome was “active; multisex active; multispecies active”. `O=C(O)CC[N+](=O)[O-]`: the outcome was “inactive; multisex inactive; multispecies inactive”. `CC/C(=C(/CC)c1ccc(O)cc1)c1ccc(O)cc1`: the outcome was “active; multisite active; multisex active; multispecies active”. Then `O=[N+]([O-])c1ccc(NCCO)c(OCCO)c1`, with “inactive; multisex inactive; multispecies inactive”. For the compound `CNCCC(Oc1ccc(C(F)(F)F)cc1)c1ccccc1` (stereo not drawn), the outcome was “inactive; multisex inactive; multispecies inactive”. For the compound `O=C(CCl)c1ccccc1`, the outcome was “inactive; multisex inactive; multispecies inactive”. Consider `Cc1cc(O)c2c(c1)C(=O)c1cc(O)cc(O)c1C2=O`, for which the outcome was “inactive; multisex inactive; multispecies inactive”. With `O=C1NS(=O)(=O)c2ccccc21`, the outcome is “inactive; multisex inactive; multispecies inactive”. Regarding `N[C@@H](Cc1ccc(N(CCCl)CCCl)cc1)C(=O)O`, the outcome is “active; multisite active; multisex active; multispecies active”. To `CCCNN` belongs “active; multisex active”; to `Cc1cc(O)c2c(c1O)C(=O)C13C(=C2O)C(=O)C2C(O)C1C1C(O)C3C(=O)C3=C(O)c4c(O)cc(C)c(O)c4C(=O)C321` (stereo not drawn), “active; multisex active”. For the compound `[N-]=[N+]=[N-]`, the outcome is “inactive; multisex inactive”. For `CN(C)CCN(Cc1ccsc1)c1ccccn1`, the outcome is “inactive; multisex inactive”.

Regarding `C=CCN(N=O)C(N)=O`, the outcome is “active; multisite active; multisex active”. In the case of `O=C(Oc1ccccc1)Oc1ccccc1`, the outcome is “inactive; multisex inactive”. As for `Oc1ccccc1-c1ccccc1`, the outcome is “active; multisite active; multisex active”. Then `ClC(Cl)(Cl)C(Cl)(Cl)Cl`, with “active; multisite active; multisex active; multispecies active”. In the case of `CCCCCNN`, the outcome was “active; multisite active”. Turning to `CN(C)c1ccc(C(=C2C=CC(=[N+](C)C)C=C2)c2ccc(N(C)C)cc2)cc1`, the outcome is “active; multisite active; multisex active”.

On to `N#Cc1ccc(C2CCCc3cncn32)cc1` (stereo not drawn), for which the outcome is “inactive; multisex inactive”. Regarding `COc1cc2c(c3oc(=O)c4c(c13)CCOC4=O)C1C=COC1O2` (stereo not drawn), the outcome was “active; multisite active; multispecies active”.

On to `CCCCCCCCCCCCN=C(N)N`, for which the outcome was “inactive; multisex inactive”. Consider `C=CCOc1ccc(CC(=O)O)cc1Cl`, for which the outcome is “inactive; multisex inactive”. Take `CC(Oc1cc(Cl)c(Cl)cc1Cl)C(=O)O` (stereo not drawn): the outcome is “inactive; multisex inactive”. With `C#C[C@]1(O)CC[C@H]2[C@@H]3CCC4=C(CCC(=O)C4)[C@H]3CC[C@@]21C`, the outcome was “inactive; multisex inactive”. As to `O=C(O)c1ccncc1`, the outcome was “inactive; multisex inactive; multispecies inactive”. Turning to `C=CCOc1ccccc1OCC(O)CNC(C)C` (stereo not drawn), the outcome was “inactive; multisex inactive; multispecies inactive”.

With `ClC#CCl`, the outcome is “active; multisite active; multisex active; multispecies active”. On to `BrC(Br)Br`, for which the outcome is “active; multisex active”. Then `O=S(=O)(O)NC1CCCCC1`, with “active; multisite active; multisex active”. `COc1cc(CNC(=O)CCCC/C=C/C(C)C)ccc1O`: the outcome is “active; multisex active”.

Take `COc1ccc([N+](=O)[O-])cc1N=Nc1c(O)c(C(=O)Nc2cccc([N+](=O)[O-])c2)cc2ccccc12`: the outcome is “inactive; multisex inactive; multispecies inactive”.
